Source: PubChem BioAssay AID248 (DTP/NCI, 2004)
Where “and” joins values, the source holds several entries; their conditions need not be identical. Identical values can stand only once. Inconclusive results and toxic doses are left out. Rule as the data show it: active = T/C of 150% or more; inactive = T/C below 125%.

Tested on: L1210 leukemia ip in BDF1 mice, survival T/C
Experiment: NCI In Vivo Anticancer Drug Screen. Data for tumor model L1210 Leukemia (intraperitoneal) in B6D2F1 (BDF1) mice
Conditions: endpoint: mean survival time, higher = longer survival
Method in brief: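 Mice bearing the transplanted tumor received compound or vehicle. Survival of the treated group was divided by that of the vehicle-treated control group to give the ratio.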

[1] = dose: 100.0 mg/kg/injection, schedule: Q04DX003 (ip), vehicle: Klucel (hydroxypropylcellulose) (HPC)
[2] = dose: 200.0 mg/kg/injection, schedule: Q04DX003 (ip), vehicle: Klucel (hydroxypropylcellulose) (HPC)
[3] = dose: 400.0 mg/kg/injection, schedule: Q04DX003 (ip), vehicle: Klucel (hydroxypropylcellulose) (HPC)
[4] = dose: 100.0 mg/kg/injection, schedule: Q01DX001 (ip), vehicle: carboxymethylcellulose (CMC)
[5] = dose: 200.0 mg/kg/injection, schedule: Q01DX001 (ip), vehicle: carboxymethylcellulose (CMC)
[6] = dose: 400.0 mg/kg/injection, schedule: Q01DX001 (ip), vehicle: carboxymethylcellulose (CMC)
[7] = dose: 100.0 mg/kg/injection, schedule: Q01DX009 (ip), vehicle: saline with Tween-80
[8] = dose: 100.0 mg/kg/injection, schedule: Q01DX001 (ip), vehicle: saline
[9] = dose: 200.0 mg/kg/injection, schedule: Q01DX001 (ip), vehicle: saline
[10] = dose: 400.0 mg/kg/injection, schedule: Q01DX001 (ip), vehicle: saline

Measured: T/C

Nc1cc(C(Cl)(Cl)Cl)nc(Cl)n1
inactive: [1] 105 % of control | [2] 94 % of control | [3] 94 % of control

Cc1ccc(Nc2cc(=O)[nH]c(=O)[nH]2)c(C)c1
inactive: dose: 18.75 mg/kg/injection, schedule: Q01DX001 (ip), vehicle: saline with Tween-80 97 % of control | dose: 37.5 mg/kg/injection, schedule: Q01DX001 (ip), vehicle: saline with Tween-80 90 % of control | dose: 75.0 mg/kg/injection, schedule: Q01DX001 (ip), vehicle: saline with Tween-80 90 % of control

CCOC(=O)C1C2=C(C(N)=O)C(=O)C(C(=O)O2)C1c1ccc(O)cc1 (configuration not stated)
inactive: dose: 100.0 mg/kg/injection, schedule: Q01DX001 (ip), vehicle: other 91 % of control | dose: 200.0 mg/kg/injection, schedule: Q01DX001 (ip), vehicle: other 97 % of control

O=[N+]([O-])c1ccc(O)c(C=Nc2cnc3ccccc3c2)c1
inactive: [4] 88 % of control | [5] 93 % of control | [6] 90 % of control

Cc1cc(SC#N)ncn1
inactive: dose: 5.0 mg/kg/injection, schedule: Q01DX001 (ip), vehicle: saline 98 % of control | dose: 10.0 mg/kg/injection, schedule: Q01DX001 (ip), vehicle: saline 101 % of control

N#CC(C#N)=C(C#N)C#N
inactive: dose: 3.13 mg/kg/injection, schedule: Q01DX009 (ip), vehicle: Klucel (hydroxypropylcellulose) (HPC) 95 % of control | dose: 6.25 mg/kg/injection, schedule: Q01DX009 (ip), vehicle: Klucel (hydroxypropylcellulose) (HPC) 91 % of control

CC(C)CCn1ccc(=O)[nH]c1=O
inactive: dose: 100.0 mg/kg/injection, schedule: Q01DX001 (ip), vehicle: Klucel (hydroxypropylcellulose) (HPC) 100 % of control | dose: 200.0 mg/kg/injection, schedule: Q01DX001 (ip), vehicle: Klucel (hydroxypropylcellulose) (HPC) 98 % of control | dose: 400.0 mg/kg/injection, schedule: Q01DX001 (ip), vehicle: Klucel (hydroxypropylcellulose) (HPC) 105 % of control

C[Si](C)(C)Oc1cccc([Si](C)(C)C)c1
inactive: [7] 97 % of control | dose: 200.0 mg/kg/injection, schedule: Q01DX009 (ip), vehicle: saline with Tween-80 95 % of control | dose: 400.0 mg/kg/injection, schedule: Q01DX009 (ip), vehicle: saline with Tween-80 92 % of control

CCCCCCCC/C=C\CCCCCCCCNC(C)=O
inactive: dose: 100.0 mg/kg/injection, schedule: Q04DX003 (ip), vehicle: saline with Tween-80 101 % of control | dose: 200.0 mg/kg/injection, schedule: Q04DX003 (ip), vehicle: saline with Tween-80 103 % of control | dose: 400.0 mg/kg/injection, schedule: Q04DX003 (ip), vehicle: saline with Tween-80 98 % of control

Cc1ccc2cccc3c2c1S(=O)(=O)c1cccc2cccc(c12)C3
inactive: [8] 98 % of control | [9] 104 % of control | [10] 93 % of control

Cc1c(F)cccc1OCC(=O)O
inactive: dose: 100.0 mg/kg/injection, schedule: Q04DX002 (ip), vehicle: Klucel (hydroxypropylcellulose) (HPC) 111 % of control | dose: 200.0 mg/kg/injection, schedule: Q04DX002 (ip), vehicle: Klucel (hydroxypropylcellulose) (HPC) 108 % of control | dose: 400.0 mg/kg/injection, schedule: Q04DX002 (ip), vehicle: Klucel (hydroxypropylcellulose) (HPC) 105 % of control

COc1ccc(C(=O)C(C)C(O)(C(F)(F)F)C(F)(F)F)cc1 (configuration not stated)
inactive: dose: 75.0 mg/kg/injection, schedule: Q01DX009 (ip), vehicle: Klucel (hydroxypropylcellulose) (HPC) 97 % of control | [1] 111 % of control | dose: 150.0 mg/kg/injection, schedule: Q01DX009 (ip), vehicle: Klucel (hydroxypropylcellulose) (HPC) 101 % of control | [2] 100 % of control | dose: 300.0 mg/kg/injection, schedule: Q01DX009 (ip), vehicle: Klucel (hydroxypropylcellulose) (HPC) 92 % of control | [3] 100 % of control

N#Cc1ccc(CCCCCCc2ccc(C#N)cc2)cc1
inactive: dose: 25.0 mg/kg/injection, schedule: Q01DX009 (ip), vehicle: saline with Tween-80 95 % of control | dose: 50.0 mg/kg/injection, schedule: Q01DX001 (ip), vehicle: carboxymethylcellulose (CMC) 101 % of control | dose: 50.0 mg/kg/injection, schedule: Q01DX009 (ip), vehicle: saline with Tween-80 95 % of control | [4] 106 % of control | [7] 94 % of control | [5] 110 % of control | [6] 120 % of control

COc1ccc(C(O)CN)cc1 (configuration not stated)
inactive: dose: 50.0 mg/kg/injection, schedule: Q01DX009 (ip), vehicle: saline 93 % of control | dose: 100.0 mg/kg/injection, schedule: Q01DX009 (ip), vehicle: saline 102 % of control | dose: 100.0 mg/kg/injection, schedule: Q04DX003 (ip), vehicle: saline 105 % of control | dose: 200.0 mg/kg/injection, schedule: Q01DX009 (ip), vehicle: saline 95 % of control and 102 % of control | dose: 200.0 mg/kg/injection, schedule: Q04DX003 (ip), vehicle: saline 103 % of control

CCOC(=O)c1cnc(SC)nc1Nc1cccc(C(F)(F)F)c1
inactive: dose: 50.0 mg/kg/injection, schedule: Q01DX001 (ip), vehicle: gum acacia 96 % of control | dose: 87.0 mg/kg/injection, schedule: Q01DX009 (ip), vehicle: gum acacia 100 % of control | dose: 100.0 mg/kg/injection, schedule: Q01DX001 (ip), vehicle: gum acacia 89 % of control and 90 % of control | dose: 175.0 mg/kg/injection, schedule: Q01DX009 (ip), vehicle: gum acacia 99 % of control | dose: 200.0 mg/kg/injection, schedule: Q01DX001 (ip), vehicle: gum acacia 89 % of control | dose: 350.0 mg/kg/injection, schedule: Q01DX009 (ip), vehicle: gum acacia 94 % of control | dose: 400.0 mg/kg/injection, schedule: Q01DX001 (ip), vehicle: gum acacia 99 % of control

Cc1cc(C)c(-c2c(O)c(Br)c(C)c(O)c2Br)c(C)c1Br
inactive: dose: 75.0 mg/kg/injection, schedule: Q04DX003 (ip), vehicle: Klucel (hydroxypropylcellulose) (HPC) 97 % of control | dose: 150.0 mg/kg/injection, schedule: Q04DX003 (ip), vehicle: Klucel (hydroxypropylcellulose) (HPC) 97 % of control | dose: 300.0 mg/kg/injection, schedule: Q04DX003 (ip), vehicle: Klucel (hydroxypropylcellulose) (HPC) 92 % of control

O=C(Nc1ccc(S(=O)(=O)F)cc1)c1cccc([N+](=O)[O-])c1
inactive: [8] 101 % of control | [9] 100 % of control | [10] 97 % of control

Nc1c(Br)cc2c([nH]c(=O)c3cc(Br)ccc32)c1Br
inactive: [4] 101 % of control | [5] 104 % of control | [6] 106 % of control

CP1(=O)CCC(Br)C1Br (configuration not stated)
inactive: dose: 100.0 mg/kg/injection, schedule: Q04DX002 (ip), vehicle: saline with Tween-80 91 % of control | dose: 200.0 mg/kg/injection, schedule: Q04DX002 (ip), vehicle: saline with Tween-80 91 % of control | dose: 400.0 mg/kg/injection, schedule: Q04DX002 (ip), vehicle: saline with Tween-80 98 % of control
